23 compounds from patent US20240279220A1, “INDOLE COMPOUNDS AND METHODS OF USE” (Genzyme Corporation, priority 2021, published 2024) can be followed below.

The subject of this experiment is NBD1/3D. Nature of the experiment: Aggregation analysis using differential static light scattering (DSLS), NBD1 thermal stability. Type of experiment: binding, Human. To be noted: ΔTagg versus DMSO control; compound at 100 μM. Here is the method: Purified recombinant NBD1 was produced using previously described methods (A. Schmidt, J. L. Mendoza, P. J. Thomas (2011) Biochemical and Biophysical Approaches to Probe CFTR Structure (365-376) M. D. Amaral, K. Kunzelmann (eds.), Cystic Fibrosis, Methods in Molecular Biology 741, Springer Science+Business Media). The effect of test compounds on thermal stability of NBD1 was evaluated by differential static light scattering (DSLS) using the Harbinger Stargazer-384 instrument (Epiphyte Three, Toronto, Canada).
Test compounds were dissolved and diluted to desired concentrations in 100% DMSO. The compounds or DMSO controls (100 nL) were stamped into wells of a […] low volume optical plate (Corning Inc., Corning, NY) using the Echo 555 acoustic liquid handler (Labcyte Inc., San Jose, CA).
NBD1 protein was diluted to 0.2 mg/ml in S200 buffer (50 mM Tris-HCl, 150 mM NaCl, 5 mM MgCl2, 2 mM ATP, 2 mM DTT, pH7.6) containing 1% glycerol. 10 uL of protein solution was aliquoted into the 384-well plate harboring the test compounds and 10 uL mineral oil was overlayed onto the protein solution, using the epMotion robotic liquid handler (Eppendorf North America, Hauppauge, NY). After placing into the Stargazer instrument, the plate was heated at 1° C. per minute to 70° C. Images were captured from 25° C. to 70° C. every 0.5° C. At the end of the experiment run, instrument software integrated image files and analyzed data automatically. A […] regression curve was generated for each well, representing the increase in light scattering over time. A temperature of aggregation (Tagg) was calculated based on the inflection point of the curve. To better compare data across experiments the average Tagg for DMSO control wells was calculated and subtracted from values for wells containing compounds to obtain a “ΔTagg” value. These ΔTagg values reflect stabilizing efficacy of the compounds.

Turning to `CC(O)(c1cccc(CCC(=O)O)c1)c1c[nH]c(-c2cc(Oc3c(F)cc4[nH]ccc4c3S(C)(=N)=O)ccc2F)n1` (centres unmarked) [Example 203, 3-(3-(1-(2-(2-fluoro-5-((6-fluoro-4-(S-methylsulfonimidoyl)-1H-indol-5-yl)oxy)phenyl)-1H-imidazol-4-yl)-1-hydroxyethyl)phenyl) propanoic acid], the “DSLS NBD1/3D Human Stability delta-T (° C.) @ 100 (μM)” value (shortened to “DSLS NBD1/3D Human Stability delta-T”) is given as “A (A: T ≥ 10° C.)”.

With `COC(=O)CCc1cccc(Cc2c[nH]c(-c3cc(Oc4c(F)cc5[nH]ccc5c4F)ccc3F)n2)c1` [Example 101, methyl 3-(3-((2-(5-((4,6-difluoro-1H-indol-5-yl)oxy)-2-fluorophenyl)-1H-imidazol-4-yl)methyl)phenyl)propanoate], the “DSLS NBD1/3D Human Stability delta-T” value is given as “C (C: ≤5° C.)”.

Turning to `Cc1c(Oc2ccc(F)c(-c3ncc(C4(c5cccc(CCC(=O)O)c5)OCC(C)(C)CO4)[nH]3)c2)c(F)cc2[nH]ccc12` [Example 230, 3-(3-(2-(2-(2-fluoro-5-((6-fluoro-4-methyl-1H-indol-5-yl)oxy)phenyl)-1H-imidazol-5-yl)-5,5-dimethyl-1,3-dioxan-2-yl)phenyl)propanoic acid], the “DSLS NBD1/3D Human Stability delta-T” value is “A (A: T ≥ 10° C.)”.

On to `O=C(O)CCc1cc(F)cc(Cc2c[nH]c(-c3cc(Oc4c(F)cc5[nH]ccc5c4F)ccc3F)n2)c1` [Example 114, 3-(3-((2-(5-((4,6-difluoro-1H-indol-5-yl)oxy)-2-fluorophenyl)-1H-imidazol-4-yl)methyl)-5-fluorophenyl)propanoic acid], for which the “DSLS NBD1/3D Human Stability delta-T” value is on record as “B (B: 5-10° C.)”.

`Cc1c(Oc2ccc(F)c(-c3ncc(C(C)(O)c4cccc(CC(F)C(=O)O)c4)[nH]3)c2)c(F)cc2[nH]ccc12` (centres unmarked) [Example 199, 2-fluoro-3-(3-(1-(2-(2-fluoro-5-((6-fluoro-4-methyl-1H-indol-5-yl)oxy)phenyl)-1H-imidazol-5-yl)-1-hydroxyethyl)phenyl) propanoic acid]: the “DSLS NBD1/3D Human Stability delta-T” value is “A (A: T ≥ 10° C.)”.

With `Cc1c(Oc2ccc(F)c(-c3ncc(C4(c5cccc(CCC(=O)O)c5)CCOCC4)[nH]3)c2)c(F)cc2[nH]ccc12` [Example 148, 3-(3-(4-(2-(2-fluoro-5-((6-fluoro-4-methyl-1H-indol-5-yl)oxy)phenyl)-1H-imidazol-5-yl)tetrahydro-2H-pyran-4-yl)phenyl)propanoic acid], the “DSLS NBD1/3D Human Stability delta-T” value was “A (A: T ≥ 10° C.)”.

Regarding `CS(=O)(=O)c1c(Oc2ccc(F)c(-c3ncc(Cc4cccc(CCC(=O)O)c4)[nH]3)c2)c(F)cc2[nH]ccc12` [Example 22, 3-(3-((2-(2-Fluoro-5-((6-fluoro-4-(methylsulfonyl)-1H-indol-5-yl)oxy)phenyl)-1H-imidazol-5-yl)methyl)phenyl)propanoic acid], the “DSLS NBD1/3D Human Stability delta-T” value was “A (A: T ≥ 10° C.)”.

On to `O=C(O)CCc1cccc(C2(c3cnc(-c4cc(Oc5c(F)cc6[nH]ccc6c5F)ccc4F)[nH]3)CCOC2)c1` (centres unmarked) [Example 150, 3-(3-(3-(2-(5-((4,6-difluoro-1H-indol-5-yl)oxy)-2-fluorophenyl)-1H-imidazol-5-yl)tetrahydrofuran-3-yl)phenyl)propanoic acid], for which the “DSLS NBD1/3D Human Stability delta-T” value is reported as “A (A: T ≥ 10° C.)”.

Turning to `Cc1c(Oc2ccc(F)c(-c3nc(Cc4cccc(CCC(=O)O)c4)nn3C)c2)c(F)cc2[nH]ccc12` [Example 242, 3-(3-((5-(2-Fluoro-5-((6-fluoro-4-methyl-1H-indol-5-yl)oxy)phenyl)-1-methyl-1H-1,2,4-triazol-3-yl)methyl)phenyl)propanoic acid], the “DSLS NBD1/3D Human Stability delta-T” value is reported as “B (B: 5-10° C.)”.

In the case of `C[C@@H](O)C(=O)N1Cc2ccc(C(C)(O)c3cnc(-c4cccc(Oc5c(F)cc6[nH]ccc6c5F)c4)[nH]3)cc2C1` (stereo partly drawn) [Example 219, (2R)-1-(5-(1-(2-(3-((4,6-Difluoro-1H-indol-5-yl)oxy)phenyl)-1H-imidazol-5-yl)-1-hydroxyethyl)isoindolin-2-yl)-2-hydroxypropan-1-one], the “DSLS NBD1/3D Human Stability delta-T” value is recorded as “C (C: ≤5° C.)”.

Regarding `Cc1c(Oc2ccc(F)c(-c3nc(C4(c5cccc(CCC(=O)O)c5)CCCCC4)c[nH]3)c2)c(F)cc2[nH]ccc12` [Example 147, 3-(3-(1-(2-(2-fluoro-5-((6-fluoro-4-methyl-1H-indol-5-yl)oxy)phenyl)-1H-imidazol-4-yl)cyclohexyl)phenyl)propanoic acid], the “DSLS NBD1/3D Human Stability delta-T” value was “B (B: 5-10° C.)”.

On to `Cc1c(Oc2ccc(F)c(-c3nc(Cc4cccc(CCC(=O)O)c4F)c[nH]3)c2)c(F)c(F)c2[nH]ccc12` [Example 112, 3-(3-((2-(5-((6,7-difluoro-4-methyl-1H-indol-5-yl)oxy)-2-fluorophenyl)-1H-imidazol-4-yl)methyl)-2-fluorophenyl)propanoic acid], for which the “DSLS NBD1/3D Human Stability delta-T” value is on record as “B (B: 5-10° C.)”.

Regarding `O=C(O)CCc1cccc(Cc2csc(-c3cccc(Oc4ccc5[nH]ccc5c4CO)c3)n2)c1` [Example 99, 3-(3-((2-(3-((4-(Hydroxymethyl)-1H-indol-5-yl)oxy)phenyl)thiazol-4-yl)methyl)phenyl)propanoic acid], the “DSLS NBD1/3D Human Stability delta-T” value is recorded as “B (B: 5-10° C.)”.

As to `CS(=O)(=O)c1c(Oc2ccc(F)c(-c3nc(C4(c5cccc(CCC(=O)O)c5)CCCC4)c[nH]3)c2)c(F)cc2[nH]ccc12` [Example 47, 3-(3-(1-(2-(2-fluoro-5-((6-fluoro-4-(methylsulfonyl)-1H-indol-5-yl)oxy)phenyl)-1H-imidazol-5-yl)cyclopentyl)phenyl)propanoic acid], the “DSLS NBD1/3D Human Stability delta-T” value was “A (A: T ≥ 10° C.)”.

With `Cc1c(Oc2ccc(F)c(-c3ncc(C(C)(O)c4cccc(CCC(=O)O)c4)[nH]3)c2)c(F)cc2[nH]ccc12` (single isomer, unassigned) [Example 215A, 3-(3-(1-(2-(2-Fluoro-5-((6-fluoro-4-methyl-1H-indol-5-yl)oxy)phenyl)-1H-imidazol-5-yl)-1-hydroxyethyl)phenyl)propanoic acid], the “DSLS NBD1/3D Human Stability delta-T” value was “B (B: 5-10° C.)”.

As to `Cc1c(Oc2cccc(-c3nn(Cc4cccc(CCC(=O)O)c4)cc3F)c2)c(F)cc2[nH]ccc12` [Example 19, 3-(3-((4-Fluoro-3-(3-((6-fluoro-4-methyl-1H-indol-5-yl)oxy)phenyl)-1H-pyrazol-1-yl)methyl)phenyl)propanoic acid], the “DSLS NBD1/3D Human Stability delta-T” value is given as “C (C: ≤5° C.)”.

For `Cc1c(Oc2cccc(-c3ccc(Cc4cccc(CCC(=O)O)c4)[nH]3)c2)c(F)cc2[nH]ccc12` [Example 21, 3-(3-((5-(3-((6-Fluoro-4-methyl-1H-indol-5-yl)oxy)phenyl)-1H-pyrrol-2-yl)methyl)phenyl)propanoic acid], the “DSLS NBD1/3D Human Stability delta-T” value is on record as “C (C: ≤5° C.)”.

Regarding `CC(c1c[nH]c(-c2cc(Oc3c(F)cc4[nH]ccc4c3S(C)(=N)=O)ccc2F)n1)c1cccc(CCC(=O)O)c1F` (single isomer, unassigned) [Example 136B, 3-(2-fluoro-3-(1-(2-(2-fluoro-5-((6-fluoro-4-(S-methylsulfonimidoyl)-1H-indol-5-yl)oxy)phenyl)-1H-imidazol-4-yl)ethyl)phenyl)propanoic acid], the “DSLS NBD1/3D Human Stability delta-T” value is listed as “A (A: T ≥ 10° C.)”.

Take `CC(O)(c1cccc(CC(F)C(=O)O)c1)c1cnc(-c2cc(Oc3c(F)cc4[nH]ccc4c3F)ccc2F)[nH]1` (centres unmarked) [Example 202, 3-(3-(1-(2-(5-((4,6-difluoro-1H-indol-5-yl)oxy)-2-fluorophenyl)-1H-imidazol-5-yl)-1-hydroxyethyl)phenyl)-2-fluoropropanoic acid]: the “DSLS NBD1/3D Human Stability delta-T” value was “A (A: T ≥ 10° C.)”.

In the case of `[2H]C([2H])([2H])C(C#N)(c1cc(F)cc(CCC(=O)O)c1)c1c[nH]c(-c2cc(Oc3c(F)c(F)c4[nH]ccc4c3F)ccc2F)n1` (single isomer, unassigned) [Example 66, 3-(3-(1-cyano-1-(2-(2-fluoro-5-((4,6,7-trifluoro-1H-indol-5-yl)oxy)phenyl)-1H-imidazol-4-yl)ethyl-2,2,2-d3)-5-fluorophenyl)propanoic acid], the “DSLS NBD1/3D Human Stability delta-T” value is “B (B: 5-10° C.)”.

In the case of `CC(C#N)(c1cccc(CCC(=O)O)c1)c1c[nH]c(-c2cc(Oc3c(F)cc4[nH]ccc4c3S(C)(=O)=O)ccc2F)n1` (centres unmarked) [Example 48, 3-(3-(1-Cyano-1-(2-(2-fluoro-5-((6-fluoro-4-(methylsulfonyl)-1H-indol-5-yl)oxy)phenyl)-1H-imidazol-4-yl)ethyl)phenyl)propanoic acid], the “DSLS NBD1/3D Human Stability delta-T” value is on record as “A (A: T ≥ 10° C.)”.

With `COC(=O)CCc1cccc(Cn2ccc(-c3cccc(Oc4ccc5[nH]ccc5c4CO)c3)n2)c1` [Example 8, Methyl 3-(3-((3-(3-((4-(hydroxymethyl)-1H-indol-5-yl)oxy)phenyl)-1H-pyrazol-1-yl)methyl)phenyl)propanoate], the “DSLS NBD1/3D Human Stability delta-T” value is on record as “C (C: ≤5° C.)”.

As for `C[C@H]1C[C@](c2cccc(CCC(=O)O)c2)(c2cnc(-c3cc(Oc4c(F)cc5[nH]ccc5c4F)ccc3F)[nH]2)CCO1` (single isomer, unassigned) [Example 152], the “DSLS NBD1/3D Human Stability delta-T” value is listed as “B (B: 5-10° C.)”.
